# Experimental data from ChEMBL document CHEMBL5244219, “Recent developments of quinolone-based derivatives and their activities against Escherichia coli” (Eur J Med Chem, 2018).
# What was measured:
# Escherichia coli [1] = assay: Antibacterial activity against Escherichia coli ATCC 35218 assessed as bacterial growth inhibition incubated for 18 hrs by agar dilution method; assay type: functional
# Escherichia coli [2] = assay: Antibacterial activity against Escherichia coli ES142 assessed as bacterial growth inhibition; assay type: functional
# Escherichia coli [3] = assay: Antibacterial activity against Escherichia coli DC0 assessed as bacterial growth inhibition; assay type: functional
# Escherichia coli [4] = assay: Antibacterial activity against Escherichia coli DC2 assessed as bacterial growth inhibition; assay type: functional
# DNA gyrase = DNA gyrase (Escherichia coli, UniProt P0AES4+P0AES6); assay: Inhibition of Escherichia coli DNA gyrase; assay type: protein-complex assay
# Escherichia coli [5] = assay: Antibacterial activity against Escherichia coli H560 assessed as bacterial growth inhibition; assay type: functional
# Escherichia coli [6] = assay: Antibacterial activity against Escherichia coli ATCC 25922 assessed as bacterial growth inhibition; assay type: functional
# Escherichia coli [7] = assay: Antibacterial activity against Escherichia coli 2010-05 assessed as bacterial growth inhibition measured after 24 hrs by agar dilution method; assay type: functional
# Escherichia coli [8] = assay: Antibacterial activity against Escherichia coli 2010-29 assessed as bacterial growth inhibition measured after 24 hrs by agar dilution method; assay type: functional
# Escherichia coli [9] = assay: Antibacterial activity against Escherichia coli assessed as bacterial growth inhibition by agar dilution method; assay type: functional
# Escherichia coli [10] = assay: Antibacterial activity against clinical isolate Escherichia coli assessed as bacterial growth inhibition incubated for 24 hrs by agar dilution method; assay type: functional
# Escherichia coli [11] = assay: Antibacterial activity against Escherichia coli assessed as bacterial growth inhibition by broth microdilution method; assay type: functional
# Escherichia coli [12] = assay: Antibacterial activity against Escherichia coli assessed as bacterial growth inhibition; assay type: functional
# Escherichia coli [13] = assay: Antibacterial activity against Escherichia coli KC-14 infected in po dosed mouse assessed as bacterial growth inhibition; assay type: functional; conditions: Escherichia coli, KC-14, po, read-out: ED50
# Escherichia coli [14] = assay: Antibacterial activity against Escherichia coli TolC assessed as bacterial growth inhibition; assay type: functional
# Escherichia coli [15] = assay: Antibacterial activity against Escherichia coli NIHJ JC-2 assessed as bacterial growth inhibition; assay type: functional
# Escherichia coli [16] = assay: Antibacterial activity against Escherichia coli NCTC 10419 assessed as bacterial growth inhibition; assay type: functional
# Escherichia coli [17] = assay: Antibacterial activity against Escherichia coli NCDC 134 assessed as bacterial growth inhibition; assay type: functional
# Escherichia coli [18] = assay: Antibacterial activity against Escherichia coli assessed as bacterial growth inhibition incubated for 18 hrs by twofold serial dilution assay; assay type: functional
# Escherichia coli [19] = assay: Antibacterial activity against Escherichia coli assessed as bacterial growth inhibition by microdilution method; assay type: functional
# Escherichia coli [20] = assay: In vivo antibacterial activity against Escherichia coli NCTC 10419 infected in po dosed CF-mouse assessed as bacterial growth inhibition; assay type: functional, organism-based
# Escherichia coli [21] = assay: In vivo antibacterial activity against Escherichia coli H560 infected in po dosed CD-1 mouse assessed as bacterial growth inhibition; assay type: functional; conditions: read-out: PD50
# Escherichia coli [22] = assay: In vivo antibacterial activity against Escherichia coli H560 infected in sc dosed CD-1 mouse assessed as bacterial growth inhibition; assay type: functional; conditions: read-out: PD50
# Escherichia coli [23] = assay: Antibacterial activity against Escherichia coli DH52 assessed as bacterial growth inhibition; assay type: functional
# Escherichia coli [24] = assay: Antibacterial activity against Escherichia coli JM109 assessed as bacterial growth inhibition; assay type: functional
# Escherichia coli [25] = assay: Potency index, ratio of norfloxacin MIC to compound IC50 for antibacterial activity against Escherichia coli JM109; assay type: functional
# Escherichia coli [26] = assay: Potency index, ratio of ciprofloxacin MIC to compound IC50 for antibacterial activity against Escherichia coli JM109; assay type: functional
# Escherichia coli [27] = assay: Potency index, ratio of ciprofloxacin MIC to compound IC50 for antibacterial activity against Escherichia coli DH52; assay type: functional; conditions: time 24 hrs
# Escherichia coli [28] = assay: Potency index, ratio of norfloxacin MIC to compound IC50 for antibacterial activity against Escherichia coli DH52; assay type: functional
# Escherichia coli [29] = assay: Antibacterial activity against Escherichia coli assessed as bacterial growth inhibition incubated for 18 to 20 hrs by agar dilution method; assay type: functional; conditions: time 18-20 hrs
# Escherichia coli [30] = assay: Antibacterial activity against Escherichia coli KC-14 assessed as bacterial growth inhibition; assay type: functional
# Escherichia coli [31] = assay: Antibacterial activity against Escherichia coli K-12 C600 assessed as bacterial growth inhibition; assay type: functional
# Escherichia coli [32] = assay: Antibacterial activity against Escherichia coli ATCC 25922 infected in iv dosed mouse assessed as bacterial growth inhibition; assay type: functional
# Escherichia coli [33] = assay: Antibacterial activity against Escherichia coli ATCC 8739 assessed as bacterial growth inhibition; assay type: functional
# Escherichia coli [34] = assay: Antibacterial activity against Escherichia coli ISF 432 assessed as bacterial growth inhibition; assay type: functional
# [35] = Cmax in mouse at 20 mg/kg, po; assay type: ADME, organism-based; parameters: dose 20 mg/kg, route po; conditions: in vivo
# [36] = Half life in mouse at 20 mg/kg, po; assay type: ADME, organism-based; conditions: in vivo
# [37] = AUC(0 to infinity) in mouse at 20 mg/kg, po; assay type: ADME, organism-based; parameters: dose 20 mg/kg, route po; conditions: in vivo
smiles,measurement,setting,value
CO/N=C1\CN(c2nc3c(cc2F)c(=O)c(C(=O)O)cn3[C@@H]2C[C@@H]2F)CC1CN (some centres not stated),MIC,Escherichia coli [1],< 0.008 µg/mL
C[C@H]1COc2cc(N3CC[C@@H](C(C)(C)N)C3)cc3c(=O)c(C(=O)O)cn1c23,MIC,Escherichia coli [2],0.063 µg/mL
same,MIC,Escherichia coli [3],0.063 µg/mL
same,MIC,Escherichia coli [4],0.063 µg/mL
same,IC50,DNA gyrase,8.62 µM
Cc1c(N2C[C@@H](F)[C@@H](C3(N)CC3)C2)c(F)c(N)c2c(=O)c(C(=O)O)cn([C@@H]3C[C@@H]3F)c12 [DQ-113],MIC,Escherichia coli [5],≤ 0.003 µg/mL
C[C@@H](O)[C@H]1C(=O)N2C(C(=O)O)=C(COC(=O)N[C@H]3CCN(c4c(F)cc5c(=O)c(C(=O)O)cn(C6CC6)c5c4F)C3)S[C@H]12,MIC,Escherichia coli [6],≤ 0.06 µg/mL
C[C@H]1COc2c(N3CCN(C)CC3)c(F)cc3c(=O)c(C(=O)O)cn1c23.C[C@H]1COc2c(N3CCN(C)CC3)c(F)cc3c(=O)c(C(=O)O)cn1c23.O [LEVOFLOXACIN],MIC,Escherichia coli [7],32 µg/mL
same,MIC,Escherichia coli [8],32 µg/mL
same,MIC90,Escherichia coli [9],4 µg/mL
same,MIC90,Escherichia coli [10],32 µg/mL
CCn1cc(C(=O)NN)c(=O)c2cc(Cl)ccc21,MIC,Escherichia coli [11],0.0625 µg/mL
COc1cccc(CO/N=C2\CCN(c3c(F)cc4c(=O)c(C(=O)O)cn(C5CC5)c4c3OC)CC2N)c1 (configuration not stated),MIC,Escherichia coli [1],< 0.008 µg/mL
CCn1cc(C(=O)NNS(=O)(=O)c2ccc(C)cc2)c(=O)c2ccccc21,MIC,Escherichia coli [11],0.0625 µg/mL
O=C(O)c1cn(C2CC2)c2cc(N3CCNCC3)c(F)cc2c1=O [CIPROFLOXACIN],MIC,Escherichia coli [12],0.025 µg/mL
same,ED50,Escherichia coli [13],0.45 mg/kg
same,MIC,Escherichia coli [14],8.21 µg/mL
same,MIC,Escherichia coli [15],0.0063 µg/mL
same,MIC,Escherichia coli [7],64 µg/mL
same,MIC,Escherichia coli [8],64 µg/mL
same,MIC,Escherichia coli [16],0.0011 µg/mL
same,MIC,Escherichia coli [17],40 µg/mL
same,MIC,Escherichia coli [18],≤ 0.015 µg/mL
same,MIC,Escherichia coli [19],≤ 0.03 µg/mL
same,EC50,Escherichia coli [20],1.25 mg/kg
same,MIC,Escherichia coli [5],≤ 0.003 µg/mL
same,ED50,Escherichia coli [21],1 mg/kg
same,ED50,Escherichia coli [22],0.3 mg/kg
same,MIC90,Escherichia coli [9],4 µg/mL
Cc1c(N2CCN(c3nc4ccccc4[nH]3)CC2)c(F)cc2c(=O)c(C(=O)O)cn(C3CC3)c12,MIC,Escherichia coli [23],0.125 µg/mL
same,MIC,Escherichia coli [24],0.125 µg/mL
same,Ratio,Escherichia coli [25],2
same,Ratio,Escherichia coli [26],2
same,Ratio,Escherichia coli [27],2
same,Ratio,Escherichia coli [28],2
COc1c(N2CCNC(C)C2)c(F)cc2c(=O)c(C(=O)O)cn(C3CC3)c12 (configuration not stated) [GATIFLOXACIN],MIC,Escherichia coli [17],100 µg/mL
same,MIC,Escherichia coli [29],0.015 µg/mL
same,MIC,Escherichia coli [5],0.006 µg/mL
same,MIC90,Escherichia coli [9],4 µg/mL
CN1CCN(c2cc3c(cc2F)c(=O)c(C(=O)O)c2n3CCS2)CC1,MIC,Escherichia coli [30],0.2 µg/mL
same,MIC,Escherichia coli [31],0.2 µg/mL
O=C(O)c1cn(-c2ccc(F)cc2F)c2nc(N3CCCC3)c(F)cc2c1=O,MIC,Escherichia coli [5],0.025 µg/mL
same,ED50,Escherichia coli [21],0.5 mg/kg
same,ED50,Escherichia coli [22],0.2 mg/kg
CN1CCN(c2cc3c(cc2F)c(=O)c(C(=O)O)cn3-c2ccc(O)cc2)CC1,ED50,Escherichia coli [32],0.75 mg/kg
COc1cccc(CO/N=C2\CCN(c3c(F)cc4c(=O)c(C(=O)O)cn(C5CC5)c4c3OC)CC2N)c1OC (configuration not stated),MIC,Escherichia coli [1],< 0.008 µg/mL
Cc1c(N2CCc3ccccc3C2)c(N)cc2c(=O)c(C(=O)O)cn(C3CC3)c12,MIC,Escherichia coli [33],0.008 µg/mL
same,MIC,Escherichia coli [34],0.008 µg/mL
C[C@@H](O)[C@H]1C(=O)N2C(C(=O)O)=C(COC(=O)N3CCN(c4cc5c(cc4F)c(=O)c(C(=O)O)cn5C4CC4)CC3)S[C@H]12,MIC,Escherichia coli [6],≤ 0.06 µg/mL
C[C@H](N)[C@@H]1CCN(c2cc3c4c(c2)c(=O)c(C(=O)O)cn4[C@@H](C)CO3)C1,MIC,Escherichia coli [2],0.063 µg/mL
same,MIC,Escherichia coli [3],0.063 µg/mL
same,MIC,Escherichia coli [4],0.063 µg/mL
same,IC50,DNA gyrase,17.9 µM
COc1cc(Cc2cnc(/N=C3\C(=O)N(CN4CCN(c5cc6c(cc5F)c(=O)c(C(=O)O)cn6C5CC5)CC4)c4ccc(C)cc43)nc2N)cc(OC)c1OC,MIC,Escherichia coli [16],0.0002 µg/mL
same,EC50,Escherichia coli [20],0.62 mg/kg
NC1CCN(c2nc3c(cc2F)c(=O)c(C(=O)O)cn3-c2ccc(F)cc2F)C1 (configuration not stated) [TOSUFLOXACIN],MIC,Escherichia coli [5],≤ 0.003 µg/mL
COc1c(N2CCN(C)CC2)c(F)cc2c(=O)c(C(=O)O)c3n(c12)C(C)S3 (configuration not stated),ED50,Escherichia coli [13],1.28 mg/kg
same,MIC,Escherichia coli [30],0.1 µg/mL
same,Cmax,[35],840 ng/mL
same,half-life,[36],4.9 h
same,AUC(0-inf),[37],2700 ng·h/mL
CCn1cc(C(=O)NN)c(=O)c2cc(F)ccc21,MIC,Escherichia coli [11],0.0625 µg/mL
